Results taken from EPA's ToxRefDB 2.

How the values were obtained:
dog [1] = conditions: Sub-acute repeat dose toxicity; beagle; Oral; Gavage/Intubation; dose end: 4 week; group: systemic; systemic / in life observation / clinical signs / abnormal feces
rabbit = conditions: Prenatal developmental toxicity study, new zealand white, Oral, Gavage/Intubation, dose end: 19 GD
rat [2] = conditions: Fertility (Segment I), sprague dawley, Oral, Gavage/Intubation, dose end: 7 GD
rat [3] = conditions: Prenatal developmental toxicity study, sprague dawley, Oral, Gavage/Intubation, dose end: 17 GD
rat [4] = conditions: Prenatal developmental toxicity study, sprague dawley, Oral, Gavage/Intubation, dose end: 17 GD; remark: listed apart in the source
rat [5] = conditions: Sub-acute repeat dose toxicity, sprague dawley, Oral, Gavage/Intubation, dose end: 4 week, group: systemic
rat [6] = conditions: Developmental neurotoxicity study, long evans, Oral, Gavage/Intubation, dose end: 110 PND, group: cannot be grouped
rat [7] = conditions: Combined chronic toxicity/carcinogenicity, fischer, Oral, Feed, dose end: 24 month, group: systemic
mouse [8] = conditions: Carcinogenicity, cd1, Oral, [Not Specified], dose end: 24 month, group: systemic
rat [9] = conditions: Prenatal developmental toxicity study, sprague dawley, Oral, Gavage/Intubation, dose end: 15 GD
dog [10] = conditions: Chronic toxicity; beagle; Oral; Feed; dose end: 12 month; group: systemic; systemic / pathology microscopic / kidney / adenoma
rat [11] = conditions: Subchronic oral toxicity in rodents, fischer, Water, dose end: 13 week, group: systemic
rat [12] = conditions: Peri- and post-natal toxicity study (Segment III); sprague dawley; Oral; Gavage/Intubation; dose end: 40 PND; group: parental; systemic / clinical chemistry / estradiol / estradiol + systemic / organ weight / adrenal gland / absolute
mouse [13] = conditions: Sub-acute repeat dose toxicity, b6c3f1, Oral, Feed, dose end: 14 day, group: systemic
rat [14] = conditions: Subchronic oral toxicity in rodents, fischer, Feed, dose end: 13 week, group: systemic, systemic / in life observation / body weight / body weight
rat [15] = conditions: Carcinogenicity; fischer; Oral; Feed; dose end: 103 week; group: systemic; systemic / in life observation / body weight / body weight
mouse [16] = conditions: Carcinogenicity, b6c3f1, Oral, Feed, dose end: 103 week, group: systemic
rat [17] = conditions: Sub-acute repeat dose toxicity, fischer, Oral, Feed, dose end: 14 day, group: systemic
rat [18] = conditions: Combined chronic toxicity/carcinogenicity, sprague dawley, Oral, Feed, dose end: 104 week, group: systemic
[19] = group: developmental, systemic / in life observation / body weight / fetal weight
[20] = group: maternal, systemic / in life observation / body weight / body weight gain + systemic / in life observation / clinical signs / defecation + systemic / …
[21] = group: maternal, reproductive / reproductive performance / estrous cycle / corpora lutea + reproductive / reproductive performance / implantations / …
[22] = group: parental, systemic / in life observation / body weight / body weight gain + systemic / in life observation / food consumption / food consumption
[23] = group: developmental, developmental / developmental malformation / bone / branched + developmental / developmental malformation / bone / full supernumerary + …
[24] = group: developmental, developmental / developmental malformation / bone / short + developmental / developmental malformation / bone / unossified + developmental…
[25] = group: maternal, systemic / in life observation / body weight / body weight + systemic / in life observation / body weight / body weight gain + systemic / in…
[26] = group: developmental, developmental / developmental malformation / trunk / thoracogastroschisis + systemic / in life observation / body weight / fetal weight
[27] = group: maternal, reproductive / reproductive performance / postimplantation loss / postimplantation loss + systemic / in life observation / body weight / …
[28] = systemic / clinical chemistry / cholesterol / cholesterol + systemic / pathology microscopic / kidney / karyomegaly + systemic / pathology …
[29] = systemic / pathology microscopic / kidney / karyomegaly + systemic / pathology microscopic / kidney / necrosis + systemic / pathology …
[30] = systemic / in life observation / body weight / body weight gain + systemic / in life observation / clinical signs / vaginal discharge + …
[31] = systemic / pathology microscopic / adrenal gland / pheochromocytoma benign + systemic / pathology microscopic / adrenal gland / …
[32] = systemic / pathology gross / lung / nodule(s)
[33] = systemic / pathology microscopic / liver / hemangiosarcoma + systemic / pathology microscopic / lung / adenoma + systemic / pathology …
[34] = group: developmental, developmental / developmental malformation / bone / absent
[35] = group: maternal, systemic / in life observation / clinical signs / defecation (diarrhea) + systemic / in life observation / clinical signs / soft stools
[36] = systemic / urinalysis / protein / protein + systemic / urinalysis / bilirubin / total bilirubin
[37] = systemic / urinalysis / protein / protein + systemic / urinalysis / bilirubin / total bilirubin + systemic / urinalysis / specific gravity/…
[38] = systemic / in life observation / body weight / body weight + systemic / in life observation / body weight / body weight gain + systemic / in…
[39] = systemic / pathology microscopic / liver / hepatocellular adenoma + systemic / pathology microscopic / liver / hepatocellular carcinoma
[40] = systemic / in life observation / body weight / body weight gain + systemic / in life observation / mortality / mortality + systemic / in …
[41] = systemic / pathology microscopic / kidney / adenoma + systemic / organ weight / kidney / absolute + systemic / organ weight / kidney / …

Cc1nc(-c2ccccn2)ncc1C(=O)Nn1cc(C)c2cc(F)ccc21
LEL (dog [1]): 100 mg/kg/day
LOAEL (dog [1]): 100 mg/kg/day
NEL (dog [1]): 30 mg/kg/day
NOAEL (dog [1]): 30 mg/kg/day
LEL (rabbit; [19]): 500 mg/kg/day
LOAEL (rabbit; [19]): > 2000 mg/kg/day
NEL (rabbit; [19]): < 500 mg/kg/day
NOAEL (rabbit; [19]): ≥ 2000 mg/kg/day
LEL (rabbit; [20]): 500 mg/kg/day
LOAEL (rabbit; [20]): > 2000 mg/kg/day
NEL (rabbit; [20]): < 500 mg/kg/day
NOAEL (rabbit; [20]): ≥ 2000 mg/kg/day
LEL (rat [2]; [21]): 110 mg/kg/day
LOAEL (rat [2]; [21]): > 110 mg/kg/day
NEL (rat [2]; [21]): 30 mg/kg/day
NOAEL (rat [2]; [21]): ≥ 110 mg/kg/day
LEL (rat [2]; group: parental, systemic / in life observation / body weight / body weight gain): 30 mg/kg/day
LOAEL (rat [2]; [22]): > 110 mg/kg/day
NEL (rat [2]; [22]): 10 mg/kg/day
NOAEL (rat [2]; [22]): ≥ 110 mg/kg/day
LOAEL (rat [3]; [23]): > 110 mg/kg/day
NOAEL (rat [3]; [23]): ≥ 110 mg/kg/day
LEL (rat [3]; [24]): 10 mg/kg/day
NEL (rat [3]; [24]): < 10 mg/kg/day
LOAEL (rat [3]; [25]): 110 mg/kg/day
NEL (rat [3]; [25]): 10 mg/kg/day
NOAEL (rat [3]; [25]): 30 mg/kg/day
LEL (rat [3]; group: maternal, systemic / in life observation / food consumption / food consumption): 30 mg/kg/day
LOAEL (rat [4]; [26]): > 110 mg/kg/day
NEL (rat [4]; [26]): 10 mg/kg/day
NOAEL (rat [4]; [26]): ≥ 110 mg/kg/day
LEL (rat [4]; [19]): 30 mg/kg/day
LEL (rat [4]; [27]): 110 mg/kg/day
LOAEL (rat [4]; [27]): > 110 mg/kg/day
NEL (rat [4]; [27]): 30 mg/kg/day
NOAEL (rat [4]; [27]): ≥ 110 mg/kg/day
LOAEL (rat [5]; [28]): 110 mg/kg/day
NOAEL (rat [5]; [28]): 30 mg/kg/day
LEL (rat [5]; [29]): 10 mg/kg/day
NEL (rat [5]; [29]): < 10 mg/kg/day

CCC[CH2][Sn]([CH2]CCC)([CH2]CCC)[O][Sn]([CH2]CCC)([CH2]CCC)[CH2]CCC [Bis(tributyltin)oxide]
NEL (rat [6]; developmental / developmental malformation / mouth / jaw / cleft palate + developmental / offspring survival late / [other] / [other] + …): 2.5 mg/kg/day
LOAEL (rat [6]; [30]): > 16 mg/kg/day
NOAEL (rat [6]; [30]): ≥ 16 mg/kg/day
LEL (rat [6]; systemic / in life observation / body weight / offspring (pup) weight): 5 mg/kg/day

CN(C)NC(=O)CCC(=O)O [Daminozide]
LOAEL (rat [7]; [31]): > 500 mg/kg/day
NEL (rat [7]; [31]): 25 mg/kg/day
NOAEL (rat [7]; [31]): ≥ 500 mg/kg/day
LEL (rat [7]; systemic / pathology microscopic / adrenal gland / pheochromocytoma malignant): 250 mg/kg/day
LEL (mouse [8]; [32]): 42 mg/kg/day
NEL (mouse [8]; [32]): < 42 mg/kg/day
LOAEL (mouse [8]; [33]): > 1410 mg/kg/day
NOAEL (mouse [8]; [33]): ≥ 1410 mg/kg/day
LEL (rat [9]; [34]): 1800 mg/kg/day
LOAEL (rat [9]; [34]): 1800 mg/kg/day
NEL (rat [9]; [34]): 390 mg/kg/day
NOAEL (rat [9]; [34]): 390 mg/kg/day
LEL (rat [9]; [35]): 1800 mg/kg/day
LOAEL (rat [9]; [35]): 1800 mg/kg/day
NEL (rat [9]; [35]): 390 mg/kg/day
NOAEL (rat [9]; [35]): 390 mg/kg/day
LEL (dog [10]): 188 mg/kg/day
LOAEL (dog [10]): > 188 mg/kg/day
NEL (dog [10]): 75 mg/kg/day
NOAEL (dog [10]): ≥ 188 mg/kg/day
LEL (rat [11]; [36]): 2.01 mg/kg/day
LOAEL (rat [11]; [36]): 2.01 mg/kg/day
NEL (rat [11]; [37]): 0.8 mg/kg/day
NOAEL (rat [11]; [37]): 0.8 mg/kg/day

CCOC(=O)c1ccc(O)cc1 [Ethylparaben]
LEL (rat [12]): 1000 mg/kg/day
LOAEL (rat [12]): > 1000 mg/kg/day
NEL (rat [12]): 250 mg/kg/day
NOAEL (rat [12]): ≥ 1000 mg/kg/day

C=CCc1ccc(O)c(OC)c1 [Eugenol]
LEL (mouse [13]; systemic / in life observation / body weight / body weight + systemic / in life observation / body weight / body weight gain): 1880 mg/kg/day
LOAEL (mouse [13]; [38]): > 15000 mg/kg/day
NEL (mouse [13]; [38]): 900 mg/kg/day
NOAEL (mouse [13]; [38]): ≥ 15000 mg/kg/day
LEL (rat [14]): 300 mg/kg/day
LOAEL (rat [14]): 625 mg/kg/day
NEL (rat [14]): 150 mg/kg/day
NOAEL (rat [14]): 300 mg/kg/day
LEL (rat [15]): 625 mg/kg/day
LOAEL (rat [15]): 625 mg/kg/day
NEL (rat [15]): 300 mg/kg/day
NOAEL (rat [15]): 300 mg/kg/day
LOAEL (mouse [16]; systemic / in life observation / body weight / body weight): 900 mg/kg/day
NOAEL (mouse [16]; systemic / in life observation / body weight / body weight + systemic / pathology microscopic / liver / adenoma/carcinoma combined): 450 mg/kg/day
LEL (mouse [16]; [39]): 450 mg/kg/day
NEL (mouse [16]; [39]): < 450 mg/kg/day
LEL (rat [17]; systemic / in life observation / body weight / body weight gain): 1250 mg/kg/day
NEL (rat [17]; systemic / in life observation / body weight / body weight gain + systemic / in life observation / mortality / mortality): 625 mg/kg/day
LOAEL (rat [17]; [40]): > 5000 mg/kg/day
NOAEL (rat [17]; [40]): ≥ 5000 mg/kg/day

O=P(OC(CCl)CCl)(OC(CCl)CCl)OC(CCl)CCl [TDCPP]
NEL (rat [18]; systemic / pathology microscopic / adrenal gland / adenoma + systemic / pathology microscopic / kidney / adenoma + systemic / pathology …): 5 mg/kg/day
LEL (rat [18]; [41]): 20 mg/kg/day
LOAEL (rat [18]; [41]): > 80 mg/kg/day
NOAEL (rat [18]; [41]): ≥ 80 mg/kg/day
